Assay results taken from patent publication US12331051B2 (priority 2021, dated 2025).

Legend:
[1] = target: T1, Serotonin 2C receptor (5-HT2CR) (Homo sapiens, UniProt P28335); assay: Functional assay in HEK-293 cells (IP1); assay type: cell-based
T1 construct: expressed in transfected cells; host or cells: HEK-293
T1 sequence (P28335 33-458): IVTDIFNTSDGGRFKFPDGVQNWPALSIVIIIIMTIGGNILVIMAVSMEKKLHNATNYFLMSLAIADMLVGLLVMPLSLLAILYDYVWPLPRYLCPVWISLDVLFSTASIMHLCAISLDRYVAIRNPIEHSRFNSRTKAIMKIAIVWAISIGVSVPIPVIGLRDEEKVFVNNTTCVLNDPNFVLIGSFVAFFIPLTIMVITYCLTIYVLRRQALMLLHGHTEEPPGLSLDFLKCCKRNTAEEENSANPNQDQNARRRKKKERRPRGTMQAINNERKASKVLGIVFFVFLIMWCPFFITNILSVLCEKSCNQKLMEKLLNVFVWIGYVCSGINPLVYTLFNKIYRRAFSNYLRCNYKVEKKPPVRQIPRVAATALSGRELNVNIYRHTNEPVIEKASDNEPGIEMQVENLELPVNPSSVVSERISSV
Method: Neuro-receptor binding and functional effects of the “E559 polymorph” was examined by analyzing binding affinity [Ki (nM)], functional agonist activity [EC50 (nM)], and functional antagonist activity [IC50 (nM)] against a panel of key receptors in neurophysiological disorders. Binding and functional assays were performed at “E559 polymorph” concentrations of 0.0003, 0.003, 0.01, 0.03, 0.1, 0.3, 1, and 10 μM. In binding assays, cell membrane homogenates, expressing each receptor target, were incubated with the corresponding radio-ligand in absence or presence of several concentration of the “E559 polymorph” compound. The measurement of binding affinity of the “E559 polymorph” is represented in TABLE XIII by Ki (nM) which was calculated as percent inhibition of the binding of a radioactively labeled reference ligand at each receptor. […] Following incubation, the cells were lysed and the appropriate fluorescent probe (Ca2+ flux, cAMP, or IP1) were added for 60 minutes to measure the fluorescence transfer at the appropriate wavelength using a microplate reader. The cellular agonist effect (EC50) was calculated as a percent of control response to a known reference agonist and the cellular antagonist effect (IC50) was calculated as a percent inhibition of control reference agonist response for each receptor.

[2] = target: T2, Serotonin 1B receptor (5-HT1BR) (Homo sapiens, UniProt P28222); assay: Functional assay in HEK-293 cells (cAMP); assay type: cell-based
T2 construct: expressed in transfected cells; host or cells: HEK-293
T2 sequence (P28222 whole entry): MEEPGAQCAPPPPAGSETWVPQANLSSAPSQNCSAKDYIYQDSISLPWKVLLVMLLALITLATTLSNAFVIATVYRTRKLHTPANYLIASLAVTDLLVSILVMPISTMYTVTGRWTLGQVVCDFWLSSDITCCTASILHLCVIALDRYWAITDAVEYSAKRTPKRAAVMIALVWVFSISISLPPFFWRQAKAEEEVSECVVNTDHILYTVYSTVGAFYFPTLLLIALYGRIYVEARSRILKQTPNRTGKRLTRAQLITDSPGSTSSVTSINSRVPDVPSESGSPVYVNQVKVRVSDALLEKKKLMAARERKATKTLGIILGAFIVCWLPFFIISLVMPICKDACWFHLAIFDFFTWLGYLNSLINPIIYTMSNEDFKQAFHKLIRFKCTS
Method: Neuro-receptor binding and functional effects of the “E559 polymorph” was examined by analyzing binding affinity [Ki (nM)], functional agonist activity [EC50 (nM)], and functional antagonist activity [IC50 (nM)] against a panel of key receptors in neurophysiological disorders. Binding and functional assays were performed at “E559 polymorph” concentrations of 0.0003, 0.003, 0.01, 0.03, 0.1, 0.3, 1, and 10 μM. In binding assays, cell membrane homogenates, expressing each receptor target, were incubated with the corresponding radio-ligand in absence or presence of several concentration of the “E559 polymorph” compound. The measurement of binding affinity of the “E559 polymorph” is represented in TABLE XIII by Ki (nM) which was calculated as percent inhibition of the binding of a radioactively labeled reference ligand at each receptor. In functional assays the HEK-293 cells expressing each receptor target were suspended in buffer and distribute in microplates and incubated for 30 minutes at room temperature or 37° C. in the presence of buffer alone (basal control), the reference agonist or antagonist, or the “E559 polymorph. Following incubation, the cells were lysed and the appropriate fluorescent probe (Ca2+ flux, cAMP, or IP1) were added for 60 minutes to measure the fluorescence transfer at the appropriate wavelength using a microplate reader. The cellular agonist effect (EC50) was calculated as a percent of control response to a known reference agonist and the cellular antagonist effect (IC50) was calculated as a percent inhibition of control reference agonist response for each receptor.
The functional agonist activity [EC50 (nM), Emax], and functional antagonist activity [IC50 (nM)] of the 5R:8S stereoisomer of the “E559 polymorph” (5R:8S E558) was compared with the “E559 polymorph” (a 5R:8R stereoisomer) at selected serotonin receptors. The assays were performed as described in Example 6.

[3] = target: H1 histaminergic receptor (Homo sapiens, UniProt P35367); assay: BRET-based G protein dissociation assay; assay type: cell-based
Sequence of H1 histaminergic receptor (P35367 whole entry): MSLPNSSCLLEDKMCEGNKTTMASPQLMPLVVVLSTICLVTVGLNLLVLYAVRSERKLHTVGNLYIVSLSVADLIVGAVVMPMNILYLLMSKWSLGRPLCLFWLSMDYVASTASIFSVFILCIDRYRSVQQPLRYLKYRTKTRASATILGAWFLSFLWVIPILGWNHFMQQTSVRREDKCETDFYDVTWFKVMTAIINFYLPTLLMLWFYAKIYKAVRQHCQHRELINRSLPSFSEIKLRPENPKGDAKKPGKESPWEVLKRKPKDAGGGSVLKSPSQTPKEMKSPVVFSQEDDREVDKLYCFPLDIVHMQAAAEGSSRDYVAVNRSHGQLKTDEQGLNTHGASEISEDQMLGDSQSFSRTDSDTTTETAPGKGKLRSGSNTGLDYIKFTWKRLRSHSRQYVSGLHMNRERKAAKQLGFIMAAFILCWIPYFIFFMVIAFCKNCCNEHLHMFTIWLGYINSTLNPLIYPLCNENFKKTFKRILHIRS

hERG channel = target: T3, hERG channel (Homo sapiens, UniProt Q12809); assay: Cell-based hERG antagonist assay, CHO-K1 cells, tail current
T3 construct: expressed in transfected cells; host or cells: CHO-K1
T3 sequence (Q12809 whole entry): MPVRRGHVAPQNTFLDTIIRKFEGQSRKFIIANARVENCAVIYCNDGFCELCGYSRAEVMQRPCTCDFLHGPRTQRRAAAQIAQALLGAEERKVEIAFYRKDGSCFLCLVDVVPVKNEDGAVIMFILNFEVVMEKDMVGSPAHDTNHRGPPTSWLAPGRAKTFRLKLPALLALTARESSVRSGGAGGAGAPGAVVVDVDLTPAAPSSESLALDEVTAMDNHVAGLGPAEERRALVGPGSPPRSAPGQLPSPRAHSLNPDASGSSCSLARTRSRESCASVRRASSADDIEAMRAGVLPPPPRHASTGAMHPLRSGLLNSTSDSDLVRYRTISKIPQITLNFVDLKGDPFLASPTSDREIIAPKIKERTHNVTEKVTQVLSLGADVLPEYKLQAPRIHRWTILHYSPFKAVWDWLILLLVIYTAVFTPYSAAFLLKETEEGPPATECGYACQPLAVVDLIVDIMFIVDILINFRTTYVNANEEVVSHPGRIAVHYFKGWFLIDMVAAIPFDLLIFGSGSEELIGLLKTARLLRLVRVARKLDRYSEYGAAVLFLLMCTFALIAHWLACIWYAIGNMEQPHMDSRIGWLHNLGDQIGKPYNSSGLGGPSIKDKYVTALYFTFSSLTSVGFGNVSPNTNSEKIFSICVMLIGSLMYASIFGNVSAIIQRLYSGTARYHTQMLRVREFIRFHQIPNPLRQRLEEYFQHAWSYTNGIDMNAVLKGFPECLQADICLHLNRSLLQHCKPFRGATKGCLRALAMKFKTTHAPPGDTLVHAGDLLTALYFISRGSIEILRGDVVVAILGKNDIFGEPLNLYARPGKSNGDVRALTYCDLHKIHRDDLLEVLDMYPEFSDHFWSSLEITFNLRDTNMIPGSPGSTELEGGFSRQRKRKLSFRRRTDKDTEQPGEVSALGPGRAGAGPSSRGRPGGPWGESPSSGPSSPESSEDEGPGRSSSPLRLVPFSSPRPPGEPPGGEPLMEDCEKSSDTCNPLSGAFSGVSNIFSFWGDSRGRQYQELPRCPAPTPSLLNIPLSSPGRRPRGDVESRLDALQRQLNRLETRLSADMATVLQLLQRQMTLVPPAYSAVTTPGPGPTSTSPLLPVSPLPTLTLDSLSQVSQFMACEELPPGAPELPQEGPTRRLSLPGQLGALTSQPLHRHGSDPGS
Method: The human […] (hERG) channel, is a potassium channel whose inhibition is related to cardiac arrhythmias (Abbott et al., Cell, 1999, V97(2); p175-187). The effect of the “E559 polymorph” on the hERG channel was performed in a cell-based hERG antagonist assay. In brief, CHO-K1 cells were stably transfected with human hERG cDNA and allowed to achieve whole cell configuration in culture. Cells were held at −80 mV and a 500 ms pulse to −40 mV is delivered to measure the leaking current, which is subtracted from the tail current on-line. Then the cell is depolarized to +40 mV for 500 ms and then to −80 mV over a 100 ms ramp to elicit the hERG tail current. This paradigm is delivered once every 8 s to monitor the current amplitude. The assay is conducted at room temperature. The “E559 polymorph” is then applied to cells from low to high concentrations (0.0003, 0.003, 0.01, 0.03, 0.1, 0.3, 1, 10, 30, and 100 μM) sequentially for 5 minutes. Astermizole is used at multiple concentrations as a reference compound to calculate the percent inhibition of hERG channel by the “polymorph E559”.

## CCN(CC)C(=O)[C@@H]1C=C2c3cccc4[nH]c(Br)c(c34)C[C@H]2N(C)C1 [E559, (5R, 8R)-2-Bromo-9,10-didehydro-N,N-diethyl-6-methylergoline-8-carboxamide hemi-D-tartrate]
[1]
  EC50: > 10000 nM
  IC50: 1100 nM
[2]
  IC50: > 10000 nM
[2]; Functional (Agonist) EC50 (nM), cAMP
  EC50: 6.69 nM
[2]; Functional Assay (agonist) EC50 (nM), cAMP, ligand 5-HT
  EC50: 6.96 nM
[2]; HEK293, cAMP, ligand 5-HT, read-out: Functional Assay (agonist) Emax
  Emax: 100%
[3]
  EC50: 152 nM
  Kb: 983 nM
hERG channel
  EC50: 31600 nM
